Assays:
Format in all cases: cell-based
Human normal fibroblasts = assay: Fibroblast proliferation, BrdU incorporation (Cell Proliferation ELISA BrdU kit); details: cultured 2 days, no added Ripasudil = 100%
Experimental: Human normal fibroblasts (Sanko Junyaku Co., Ltd.) were seeded at 2000 cells/well and cultured overnight. Next day, the medium (FGM-2 (Sanko Junyaku Co., Ltd.)) was exchanged (150 µL) and then Ripasudil was added in a volume of 10 µL to make final concentrations of 0.1 µM, 1.0 µM, and 10.0 µM. […] Fixation and antibody addition, washing and color development, and reaction stopping were performed according to the protocol of the Cell Proliferation ELISA BrdU kit (Roche). Then, a plate reader was used to measure OD540-620 to evaluate the action of Ripasudil on fibroblast proliferation. […]

HT-1080 cell = assay: Inhibitory action on collagen gel contraction (cell-containing collagen gel); set-up: key: When a contraction level was almost equal to that of a group to which Ripasudil was not added, (+) was used; (++) was used in the case where contraction was inhibited; (+++) was used in the case where contraction was significantly inhibited; details: HT1080 collagen gel, observed after two or three days
Experimental: HT-1080 cell suspension adjusted to a density of 150,000 to 200,000 cells/mL with a medium (medium: E'MEM (Sigma)/10% FBS/NEAA/PCSM), and a solution, obtained by mixing A, B and C solutions (A solution: Cellmatrix (Collagen Type I 3 mg/mL), B solution: concentrated culture medium, 10 x MEM Hank's culture medium, and C solution: buffer for reconstitution) of collagen gel culture kit (Nitta Gelatin Inc.) mixed at a ratio of 8 : 1 : 1 and cooling the obtained mixture, were mixed at a ratio of 1.4 : 1, and the obtained mixture was seeded in a 48 Well Plate at 500 µL/well and gelatinized in a CO2 incubator to produce a cell-containing collagen gel. After gelation, 1 mL of the medium in which Ripasudil was adjusted to 0.1 µM, 1.0 µM or 10.0 µM was added on the gel, and an injection needle was inserted between the gel and the wall surface to release the gel from the wall surface, and the gel was incubated to stand in a CO2 incubator. After two or three days, the contraction of the gel was observed, and photos were taken to evaluate the actions of Ripasudil.

[1] = system: Human lens epithelial cells (SRA 01/04); assay: Cell proliferation (DNA synthesis ability) of lens epithelial cells, BrdU incorporation ELISA; details: SRA 01/04 cells, 24 hours, FIG. 1
Experimental: Human lens epithelial cells (SRA 01/04 (RIKEN Cell Bank)) were cultured using 20% FBS-DMEM medium under conditions at 37°C and 5% CO2. The concentration of SRA 01/04 cells was adjusted using 2% FBS-DMEM medium, and the cells were seeded in a 96-well plate at 100 µL/well (5000 cells/well) and incubated for 24 hours under conditions at 37°C and 5% CO2. The medium was exchanged to 5% FBS-DMEM medium, to which TGFβ was added at 10 ng/mL (final concentration) or Ripasudil at 10, 30, or 100 µM (final concentration), and then the cells were cultured for another 24 hours. The cell proliferation ELISA, BrdU (colorimetric) kit (Roche) was used to measure the amount of intracellular 5-bromo-2'-deoxyuridine (BrdU) incorporation at a measurement wavelength of 450 nm with Multiskan MS version 8.0 (LABSYSTEMS), thereby to evaluate the effect on the cell proliferation of SRA 01/04 cells.

C[C@H]1CNCCCN1S(=O)(=O)c1cccc2cncc(F)c12 [Ripasudil, 4-fluoro-5-{[(2S)-2-methyl-1,4-diazepan-1-yl]sulfonyl}isoqu inoline]
BrdU incorporation (% of control) (Human normal fibroblasts; Ripasudil 0.1 µM): 80.0 % of control
BrdU incorporation (% of control) (Human normal fibroblasts; Ripasudil 1.0 µM): 59.3 % of control
BrdU incorporation (% of control) (Human normal fibroblasts; Ripasudil 10.0 µM): 10.9 % of control
Inhibition of contraction (HT-1080 cell; Ripasudil 0.1 µM): +
Inhibition of contraction (HT-1080 cell; Ripasudil 1.0 µM): ++
Inhibition of contraction (HT-1080 cell; Ripasudil 10.0 µM): +++
DNA synthesis of human lens epithelial cells ([1]; Ripasudil 30 µM): statistically significant decrease
DNA synthesis of human lens epithelial cells ([1]; Ripasudil 10, 30 or 100 µM): dose-dependent inhibitory action
